Data published in US20100055169A1, “CATIONIC LIPIDS AND USES THEREOF” (ABBOTT LABORATORIES, priority 2008, published 2010).

What was measured:
[1] = test system: β-galactosidase in tumor sections; assay: IHC analysis of β-galactosidase staining in intraliver tumors after i.v. dosing of Lipid-Based Particles; assay type: in vivo, Scid female mice; settings: intraliver tumor model, Scid mice, tail vein (i.v) injection
Protocol: The animal studies were carried out in accordance with internal Institutional Animal Care and Use Committee (IACUC) guidelines at Abbott Laboratories. Scid female mice at 6 to 8 weeks of age were obtained from Charles River Laboratory and used for […] tumor models. Mouse livers were exposed by vertical incision on mouse abdomens and the tumor cells were directly injected into the livers. The incision was closed by suture and wound clips. All cell lines used for creating xenograft tumors were subjected to the IMPACT profile I test (18 agents) at the University of Missouri Research Animal Diagnostic and Investigative Laboratory, and all cell lines were found negative for the 18 infectious agents tested. Tumor cells were suspended in a 1:1 mixture of S-MEM (Invitrogen, Carlsbad, Calif.) and matrigel (BD Bioscience, San Jose, Calif.) and inoculated at 1×10E6 cells per animal. Treatments were started 3 4 weeks after tumor inoculation. Formulated or unformulated siRNAs were administrated via tail vein (i.v) injection. IHC was carried out as previously described [Li, L., et al., Evaluating hypoxia-inducible factor-1alpha as a cancer therapeutic target via inducible RNA interference in vivo. Cancer Res, 2005. 65(16): p. 7249-58]. Briefly, tumors were excised, cut into pieces of less than 3 mm in thickness and immediately fixed in buffered formalin solution with neutral pH (Sigma, St. Louis, Mo.). The formalin-fixed and paraffin-embedded tumor sections were then used for staining. The mouse anti-β-galactosidase mAb (Promega, Madison, Wis.) was used to detect β-galactosidase in tumor sections. […] IHC images were acquired using the Nikon TE2000 inverted microscope. The β-galactosidase staining was evaluated by 2 people independently based on the scoring system listed below. The average of the score was calculated for each tumor.

[2] = RiboGreen assay of siRNA encapsulation efficiency, in vitro formulations of Lipid-Based Particles; assay type: physicochemical; settings: lipid:siRNA 25:1
Protocol: The mixing solution of cationic lipids, cholesterol, non-cationic lipids and PEG-lipids was prepared in ethanol (total concentration at 10 mg/mL). siSTABLE (purchased from ThermoFisher) (sense-5′ GGGGAAAGCUGGCAAGAUUUU-3′SEQ ID NO. 1, antisense-5′-AAUCUUGCCAGCUUUCCCCUU-3′ SEQ ID NO: 2) % stock solution was prepared in 10 mg/mL of solution by dissolving 10 mg siRNA in 1 mL of RNAse-free UltraPure Water. The calculated amount of siRNA solution was added to 1 mL of citrate buffer (pH 4.0, 20 mM), to provide an siRNA concentration of 0.2 mg/mL, and warmed to 60 C. The calculated amount of lipid solution was warmed to 60 C, transferred to a 0.5 mL syringe with 28½ gauge needle, and injected into the citrate buffer with stirring at 60 C. After 3 minutes, 3 mL of PBS solution at room temperature (pH 7.4) was added into the lipid mixture with stirring. The Lipid-Based Particle solution was cooled to room temperature.
(§1) The siRNA concentrations were measured using Quanti-iT RiboGreen RNA reagent (Molecular Probes, (R11490)). Vesicle sizes were characterized by dynamic light scattering with a DynaPro™ Plate Reader (Wyatt Technology) in 96-well half-area UV plate (Coring) after diluting the formulation sample (20 μL) in phosphate buffered saline (80 μL) at a pH of about 7-8. A 1% agarose gel-based assay was used for analyzing nuclease degradation and protection. Encapsulation efficiency (EE) was calculated using data obtained from a RiboGreen assay.
(§2) RNA concentration and encapsulation efficiency were determined using a Quant-iT® Ribogreen RNA reagent and kit available from Invitrogen. The siRNA was released from the Lipid-Based Particle using one of the following reagents: ethanol, Triton X-100, or phenol/chloroform. The siRNA concentration is quantified using fluorescent reading at 480 nm/520 nm.

[3] = Particle sizing by dynamic light scattering (DynaPro plate reader), in vitro formulations; assay type: physicochemical; settings: lipid:siRNA 25:1
Protocol: as §1
Particle sizes and size distributions (PDI) were characterized by using dynamic light scattering (DLS). A DLS plate reader (Dynapro™, Wyatt Technology) was used for the DLS measurement. This DLS plate reader uses an 830 nm laser and the scattering angle is 158°. It also can control temperature from 4° C. to 70° C. A 96-well format was employed for the samples.
Samples for DLS analysis were prepared by mixing 20 μL of each sample stock solution with 80 μL PBS directly in the 96-well plate (#3697, Corning). Sample mixing was accomplished using a microplate shaker (Orbis, Mikura Ltd.). Plates were read at 20° C. with an acquisition time of 50 seconds for each sample, and data was analyzed with Wyatt Technology's Dynamics V6 software. To rule out potential multiple scattering artifacts, a second plate at 4-fold reduced sample concentrations was independently prepared by mixing 5 μL stock solutions with 95 μL PBS. Under our experimental conditions the results at the two concentrations were very similar, and the final reported result for each sample represents the average of values obtained from the two plates.

[4] = RiboGreen assay of siRNA encapsulation efficiency, in vivo formulations of Lipid-Based Particles; assay type: physicochemical; settings: lipid:siRNA 25:1
Protocol: as §2
The lipid solution was prepared (10 mg/ml) by dissolving the lipid in 200 proof ethanol. The lipid mixture solution is prepared according to the above composition in Table 5.
An siRNA (TetR_ODC—12, G.G.G.G.A.A.A.G.C.U.G.G.C.A.A.G.A.U.U.U.U SEQ ID NO: 1) (ThermoFisher) solution is prepared in a concentration of 10 mg/ml by dissolving 10 mg siRNA in 1 ml of DNAse/RNAse-free distilled water.
(§3) A round bottom flask was submerged into a 65° C. water bath. Citrate buffer (37.5 ml) of pH 4.0 was pipetted into the flask. The solution was stirred by a magnetic stirring bar at a speed of 900 rpm. Both the pH 4.0 citrate buffer and the lipid solution were pre-warmed in the 65° C. water bath for about 3 minutes. A siRNA solution (0.5 ml) was pipetted into the pH 4.0 citrate buffer. The 12.5 ml lipid mixture solution was injected through a 27 gauge needle into the citrate buffer in about 30 seconds. The needle tip was inserted into the solution during the injection. The resulting solution was stirred for 5 minutes at a speed of 900 rpm. The flask was pulled up from the water bath and a 50 ml pH 7.4 PBS buffer was added into the flask. The final solution was further mixed at a speed of 900 rpm for 5 minutes. For the diafiltration process, a dialysis filter (Millipore, 100K, Cat#PXB100C50) was used to remove ethanol in the above solution. When the volume was reduced to 20 ml during the initial diafiltration, 20 ml of pH 7.4 PBS was added to the sample solution. The diafiltration was continued until the volume was reduced to 20 ml. The diafiltration process was repeated 4 times. The volume of the sample solution was reduced to about 12 ml and pH 7.4 PBS was added to make the final volume of 15 ml. The 15 ml solution was filtered sequentially through the 0.45 and 0.22 μm sterile PVDF membrane filters (Millipore) and immediately transferred into a sterile vial.

[5] = Particle sizing assay (Zetasizer Nano ZS), in vivo formulations; assay type: physicochemical; settings: lipid:siRNA 25:1
Protocol: as §3
For measurements of particle sizes and size distributions (PDI), lipid-based particles were prepared as described above. The particle solution (60 μL) was pipetted into a disposable cuvette (UVette, Eppendorf, cat#952010051) and measured in the “General Purpose” mode. Attenuator and position were optimized by the device. Measurements were performed using a Zetasizer Nano ZS (Malvern Instruments) equipped with a 4 mW He—Ne laser at a wavelength of 633 nm at 25° C. Scattered light was detected at a 173° backward scattering angle. The viscosity and refractive index of water at 25° C. was used for data analysis with the Dispersion Technology Software 5.00 (Malvern Instruments).

[6] = in vitro formulation b: Cationic lipid/PEG-cholesterol/DSPC/Chol 45/10/15/30 wt %
[7] = in vivo formulation A: Cationic lipid/Example 73/DSPC/Chol 45/10/15/30 wt %
[8] = in vivo formulation I: Cationic lipid/PEG-DPPE/DSPC/Chol 45/10/15/30 wt %
[9] = in vivo formulation J: Cationic lipid/PEG-DSPE/DSPC/Chol 45/10/15/30 wt %
[10] = in vivo formulation L: Cationic lipid/PEG-DPG/DSPC/Chol 45/10/15/30 wt %
[11] = in vitro formulation a: Cationic lipid/Example 73/DSPC/Chol 45/10/15/30 wt %
[12] = in vivo formulation C: Cationic lipid/Pal-PEG-Cera/DSPC/Chol 45/10/15/30 wt %

Compound | % Encapsulation Efficiency [2, 6] | Size [3, 6] | % Encapsulation Efficiency [4, 7] | Size [5, 7] | Size distribution (PDI) [5, 7] | other results
C[C@H]1c2cccc(O)c2C(=O)C2=C(O)[C@]3(O)C(=O)C(C(N)=O)=C(O)[C@@H](N(C)C)[C@@H]3[C@@H](O)[C@@H]21 [Doxycycline] | – | – | – | – | – | In vivo response: β-galactosidase IHC staining score ([1]; column 1): +++ (there was 80% of the section with strong straining); In vivo response: β-galactosidase IHC staining score ([1]; column 2): +++ (there was 80% of the section with strong straining); In vivo response: β-galactosidase IHC staining score ([1]; column 3): +++ (there was 80% of the section with strong straining); In vivo response: β-galactosidase IHC staining score ([1]; column 4): +++ (there was 80% of the section with strong straining); In vivo response: β-galactosidase IHC staining score ([1]; column 5): +++ (there was 80% of the section with strong straining); In vivo response: β-galactosidase IHC staining score ([1]; column 6): +++ (there was 80% of the section with strong straining)
CCCCC/C=C\C/C=C\CCCCCCCCOCC(CCN(C)CCOC)OCCCCCCCC/C=C\C/C=C\CCCCC (stereo not drawn) [Example 7, N-(2-methoxyethyl)-N-methyl-3,4-bis[(9Z,12Z)-octadeca-9,12-dienyloxy]butan-1-amine] | 96.9% | 123.2 nm | 74% | 140 nm | (0.15) | –
CCCCC/C=C\C/C=C\CCCCCCCCOCC(CCN1CCCCC1)OCCCCCCCC/C=C\C/C=C\CCCCC (stereo not drawn) [Example 1, 1-{3,4-bis[(9Z,12Z)-octadeca-9,12-dienyloxy]butyl}piperidine] | – | 96.3 nm | 74% | 108 nm | (0.18) | –
CCCCC/C=C\C/C=C\CCCCCCCCOCC(CCN(C)CCN(C)C)OCCCCCCCC/C=C\C/C=C\CCCCC (stereo not drawn) [Example 9, N-{3,4-bis[(9Z,12Z)-octadeca-9,12-dienyloxy]butyl}-N,N′,N′-trimethylethane-1,2-diamine] | 88.3% | 105.8 nm | 87.5% | 160 nm | (0.19) | % Encapsulation Efficiency [4, 8]: 98%; % Encapsulation Efficiency [4, 9]: 98%; % Encapsulation Efficiency [4, 10]: 98%; Size [5, 8]: 93.4 nm; Size distribution (PDI) [5, 8]: (0.069); Size [5, 9]: 98.1 nm; Size distribution (PDI) [5, 9]: (0.078); Size [5, 10]: 98.7 nm; Size distribution (PDI) [5, 10]: (0.056)
CCCCC/C=C\C/C=C\CCCCCCCCOCC(CCN(CC)CC)OCCCCCCCC/C=C\C/C=C\CCCCC (stereo not drawn) [Example 3, N,N-diethyl-3,4-bis[(9Z,12Z)-octadeca-9,12-dienyloxy]butan-1-amine] | 96.9% | 113.4 nm | – | 116 nm | (0.12) | % Encapsulation Efficiency [2, 11]: 97.2%; Size [3, 11]: 192 nm
CCCCC/C=C\C/C=C\CCCCCCCCOCC(CCN1CCC(N(C)C)C1)OCCCCCCCC/C=C\C/C=C\CCCCC (stereo not drawn) [Example 17, 1-{3,4-bis[(9Z,12Z)-octadeca-9,12-dienyloxy]butyl}-N,N-dimethylpyrrolidin-3-amine] | 86.2% | 114.4 nm | – | 149 nm | (0.21) | % Encapsulation Efficiency [4, 12]: 97%; Size [5, 12]: 101 nm; Size distribution (PDI) [5, 12]: (0.154)
